{"source": "patent US6713069B1", "about": "“Compositions and methods for detecting, preventing, and treating African Hemorrhagic Fever” (Board of Supervisors of Louisiana State University and …, priority 1996, dated 2004)", "origin": "cited, not measured here", "test_system": "HIV"}
{"substance": "enfuvirtide", "values": [{"measurement": "inhibition of HIV infection and fusion", "result": "inhibit HIV infection and fusion at very low dosages"}]}
